Results from BindingDB's records for doi:10.1016/j.bmc.2008.07.022 (Universidade Federal De Lavras-Ufla, 2008).
Blank lines part the entries; values can stand above or below the compound they belong to.

Target: cGMP-specific 3',5'-cyclic phosphodiesterase (Homo sapiens, UniProt O76074)
Assay: Inhibition of PDE5

SMILES: CCOc1ccc([C@H]2c3[nH]c4ccccc4c3Cc3c(O)n(CCn4cccc4)c(=O)n32)cc1
IC50: 100 nM

SMILES: CCCCn1c(O)c2n(c1=O)[C@H](c1ccoc1)c1[nH]c3ccccc3c1C2 [(3aR,10R)-2-Butyl-10-furan-3-yl-3a,4,9,10-tetrahydro-2,9,10a-triaza-cyclopenta[b]fluorene-1,3-dione]
IC50: 100 nM

SMILES: CCCCn1c(O)c2n(c1=O)[C@H](c1ccsc1)c1[nH]c3ccccc3c1C2 [Cis-2-Butyl-10-thiophen-3-yl-3a,4,9,10-tetrahydro-2,9,10a-triaza-cyclopenta[b]fluorene-1,3-dione]
IC50: 30 nM

The remaining compounds from weak to strong by IC50, led by results:

IC50: 30 nM
SMILES: CCOc1ccc([C@H]2c3[nH]c4ccccc4c3Cc3c(O)n(CCN(C)C)c(=O)n32)cc1

IC50: 20 nM
SMILES: CCOc1ccc([C@H]2c3[nH]c4ccccc4c3Cc3c(O)n(Cc4cccnc4)c(=O)n32)cc1

IC50: 20 nM
SMILES: CCOc1ccc([C@H]2c3[nH]c4ccccc4c3Cc3c(O)[nH]c(=O)n32)cc1
